This is an account of results in patent US20250049815A1, “25-HYDROXYCHOLESTEROL (25HC), CRYAB AGGREGATION INHIBITOR TO AMELIORIATE VASCULAR STIFFNESS” (Buck Institute for Research on Aging, priority 2021, published 2025).

The structures appear in SMILES notation. Entries after “also recorded” stand apart in the source; their conditions may differ.

Assay [1] deals with senescent cells. Kind of assay: Evaluation of senolytic effects in cell culture. Format: cell-based. The source says:
Genetic knockdown of this gene kills senescent cells.
There are some commercially available analogs of 25HC such as oxysterols (Griffiths et al. (2019) Biochem Soc Trans., 47: 517-526).

Assay [2] deals with senescent human fetal lung fibroblast (IMR-90). Kind of assay: Cell viability assay (Cell Counting Kit-8) on NS and SEN IMR-90 cells. Format: cell-based. The conditions noted are these: treatment started immediately after removing DMSO/250 nM Doxo, 72 hrs. The method, then: Panel A) Timeline for DMSO/250 nM Doxo treatment and early-time point timeline for 24(S)-HC and 27HC treatment on NS and SEN cells. 24(S)HC and 27HC treatment were started immediately after removing DMSO/Doxo. Panel B) and C) Cell viability assay were performed on NS and SEN cells treated with different concentrations of 24(S)HC and 27HC, respectively. 24(S)HC and 27HC treatment were done for 72 hrs. The cell viability was analyzed by Cell Counting Kit-8 according to the manufactures' protocol using Spectra Max 190 (Molecular Devices). The value was normalized to that of DMSO. (Mean +/−SE, n=3, *p<0.05, **p<0.01 and ***p<0.001 by student's t-test).

Assay [3] has as its system senescent FAPs. Kind of assay: Cell viability assay on NS and SEN FAPs treated with 25HC. Format: cell-based, mouse. The conditions noted are these: 25HC started immediately after removing DMSO/Doxo (early time point), total 5 days. As to the method: Panel A) Timeline for DMSO/Doxo treatment and early-time point timeline for 25HC treatment on NS and SEN cells. 25HC treatment was started immediately after removing DMSO/Doxo. Panel B) Cell viability assay was performed on NS and SEN cells treated with different concentrations of 25HC. 25HC treatment was done for total 5 days. The value was normalized to that of 0 uM. The average value of 0 M is expressed as 100% (Mean +/−SE, n=3, **p<0.01 and ***p<0.001 by student's t-test vs NS).

The subject of assay [4] is senescent mDFs. Kind of assay: Cell viability assay on NS and SEN mDFs treated with 25HC. Format: cell-based, mouse. The settings on record: 72 hrs. As to the method:
Panel A) Timeline for DMSO/Doxo treatment and early-time point timeline for 25HC treatment on NS and SEN cells. 25HC treatment was started immediately after removing DMSO/Doxo. Panel B) Cell viability assay was performed on NS and SEN cells treated with different concentrations of 25HC. 25HC treatment was done for 72 hrs. (Mean +/−SD, n=3, *p<0.05, **p<0.01 vs 0 uM by student's t-test).
Panel A) Timeline for DMSO/Doxo treatment and late-time point timeline for 25HC treatment on NS and SEN cells. 25HC treatment was started 7 days after removing DMSO/Doxo. Panel B) Cell viability assay was performed on NS and SEN cells treated with different concentrations of 25HC. 25HC treatment was done for 72 hrs. (Mean +/−SD, n=6, **p<0.01, ***p<0.001, ****p<0.0001, vs 0 uM by student's t-test).

Assay [5] has as its system aged female C57BL/6J p16-3MR mice. Kind of assay: Pulsed wave velocity (PWV) of the aorta by doppler imaging in aged mice. Format: in vivo, mouse. The conditions noted are these: 27 months at baseline, 25HC 50 mpk IP or GCV, 1 and 2 months post treatment, vs untreated controls. The method, then: At baseline, animals were evaluated for blood flow in the aorta using doppler imaging. This determines a measure of vascular stiffness with vessels being more stiff having faster flow.

Assay [6] has as its system CRYAB. The conditions noted are these: Makley et al. (2015) Science, 350: 674-7; cited from earlier work.
Assay [7] has as its system mouse dermal fibroblasts (mDFs). Kind of assay: qPCR of senescence marker and CRYAB mRNA in Doxo treated mDFs. Format: cell-based. The settings on record: 250 nM Doxo for 24 hours; day 1, 5, 14; normalized to β-actin, vs DMSO. As to the method:
As shown, mDFs undergo senescence upon 250 nM of Doxo treatment for 24 hours (Day 0). Real-time quantitative PCR (qPCR) was performed on RNA samples isolated from DMSO treated NS (Non-Senescent) mDF cells or Doxo treated SEN (Senescent) mDF cells at day 1, 5, and 14 after Doxo treatment. The amount of mRNA was normalized to the level of β-actin (see, e.g., Demaria et al. (2017) Cancer Discovery, 2: 165-176; and references cited therein). Relative levels of p16INK4a mRNA for DMSO and Doxo treated mDFs was measured. The average value of DMSO is expressed as 1. (Mean +/−SE, n=4, **p<0.01, ****p<0.0001 by Dunnett's multiple comparisons test vs DMSO).
Real-time quantitative PCR (qPCR) was performed on RNA samples isolated from DMSO treated NS mDF cells or Doxo treated SEN mDF cells at day 1, 5, and 14 after Doxo treatment. The amount of mRNA was normalized to the level of β-actin (see, e.g., Demaria et al. (2017) Cancer Discovery, 2: 165-176; and references cited therein). Relative levels of CRYAB mRNA for DMSO and Doxo treated mDFs was measured. The average value of DMSO is expressed as 1. (Mean +/−SE, n=4, *p<0.05, ***p<0.001 by Dunnett's multiple comparisons test vs DMSO).

For assay [8], the system named is mouse primary fibro adipogenic progenitors (FAPs). Kind of assay: qPCR of senescence marker and CRYAB mRNA in Doxo treated FAPs. The conditions noted are these: normalized to β-actin, vs DMSO. Format: cell-based. The method, then: As shown, FAPs undergo senescence upon 250 nM of Doxo treatment for 24 hours (Day 0). The mRNA was extracted from DMSO treated NS or Doxo treated SEN FAPs at indicated time points and quantified by qPCR. The amount of mRNA was normalized to the level of β-actin. The graphs show the relative levels of p16INK4a mRNA for DMSO and Doxo treated samples. The average value of DMSO is expressed as 1 (Mean +/−SE, n=3, *p<0.05 by Dunnett's multiple comparisons test vs DMSO).
The cells were treated with 250 nM doxorubicin and incubated for 24 hrs (Day 0). The mRNA was extracted from DMSO treated NS or Doxo treated SEN FAPs at the indicated time points and quantified by qPCR. The amount of mRNA was normalized to the level of β-actin mRNA. The average value of DMSO is expressed as 1 (Mean +/−SE, n=3, **p<0.01 and ***p<0.001 by Dunnett's multiple comparisons test vs DMSO).
For orientation: Real-time PCR tracks product formation cycle by cycle.

As to `C[C@@H](CCCC(C)(O)c1ccccc1)C1CCC2C3CC=C4C[C@H](O)CC[C@@]4(C)C3CC[C@]21C` (relative stereo) [rel-(3R,10S,13S)-17-[(2S)-6-hydroxy-6-phenylheptan-2-yl]-10,13-dimethyl-2,3,4,7,8,9,10,11,12,13,14,15,16,17-tetradecahydro-1H-cyclopenta[a]phenanthren-3-ol], the senolytic effect entry in assay [1] is given as “novel senolytics”.

`C[C@H](CCCC(C)(C)O)[C@H]1CC[C@H]2[C@@H]3[C@H](O)C=C4C[C@@H](O)CC[C@]4(C)[C@H]3CC[C@]12C` [7α,25-Dihydroxycholesterol]: the senolytic effect entry in assay [1] is recorded as “novel senolytics”.

`CC(C)CCC[C@@H](C)[C@H]1CC[C@H]2[C@@H]3[C@H](O)C=C4C[C@@H](O)CC[C@]4(C)[C@H]3CC[C@]12C` [7αHC, 7α-Hydroxycholesterol]: the senolytic effect entry in assay [1] is “novel senolytics”.

Consider `CC(C)CCC[C@@H](C)[C@H]1CC[C@H]2[C@@H]3[C@@H](O)C=C4C[C@@H](O)CC[C@]4(C)[C@H]3CC[C@]12C` [7βHC, 7β-Hydroxycholesterol], for which the senolytic effect entry in assay [1] is listed as “novel senolytics”.

As for `CC(C)CC[C@@H](O)[C@@H](C)[C@H]1CC[C@H]2[C@@H]3CC=C4C[C@@H](O)CC[C@]4(C)[C@H]3CC[C@]12C` [22(R)HC, 22(R)-Hydroxycholesterol], in assay [1], the senolytic effect result is “novel senolytics”.

For `CC(C)[C@@H](O)CC[C@@H](C)[C@H]1CC[C@H]2[C@@H]3CC=C4C[C@@H](O)CC[C@]4(C)[C@H]3CC[C@]12C` [24(S)HC, 24(S)-Hydroxycholesterol], the “cell viability of senescent vs non-senescent IMR-90 cells” value in assay [2] is “specifically kill senescent human fetal lung fibroblast; also recorded: specifically kill senescent IMR-90 cells”. For the same compound, the senolytic effect entry in assay [1] was “novel senolytics”.

On to `C[C@H](CCCC(C)(C)O)[C@H]1CC[C@H]2[C@@H]3CC=C4C[C@@H](O)CC[C@]4(C)[C@H]3CC[C@]12C` [25HC, 25-hydroxycholesterol], for which, in assay [3], the “cell viability of senescent vs non-senescent FAPs” value is given as “specifically kills senescent FAPs”. For the same compound, in assay [4] (25HC started 7 days after removing DMSO/Doxo), the “cell viability of senescent vs non-senescent mDFs, late time point” value was “specifically kills senescent mDFs”. Also, the “cell viability of senescent vs non-senescent mDFs, early time point” value in assay [4] (25HC started immediately after removing DMSO/Doxo) is given as “specifically kills senescent mDFs”. In addition, in assay [5], the “pulsed wave velocity (PWV) of the aorta” value is on record as “reduces PWV”. In assay [1], the senolytic effect entry is on record as “novel senolytic agent”. Moreover, the “inhibition of CRYAB” value in assay [6] is reported as “effective inhibitor of CRYAB”.

Turning to `CC(=O)CCC[C@@H](C)[C@H]1CC[C@H]2[C@@H]3CC=C4C[C@@H](O)CC[C@]4(C)[C@H]3CC[C@]12C` [27-Nor-25-ketocholesterol], the senolytic effect result in assay [1] is reported as “novel senolytics”.

`C[C@@H](CO)CCC[C@@H](C)[C@H]1CC[C@H]2[C@@H]3CC=C4C[C@@H](O)CC[C@]4(C)[C@H]3CC[C@]12C` [27HC, 27-Hydroxycholesterol]: in assay [2], the “cell viability of senescent vs non-senescent IMR-90 cells” value is “specifically kill senescent human fetal lung fibroblast; also recorded: specifically kill senescent IMR-90 cells”. In addition, the senolytic effect entry in assay [1] is given as “novel senolytics”.

Regarding `CC(CCCN(C)C)C1CCC2C3CC=C4C[C@@H](O)CC[C@]4(C)C3CC[C@]12C` (stereo partly drawn) [(3S,10R,13R)-17-(5-(dimethylamino)pentan-2-yl)-10,13-dimethyl-2,3,4,7,8,9,10,11,12,13,14,15,16,17-tetradecahydro-1H-cyclopenta[a]phenanthren-3-ol], the senolytic effect entry in assay [1] is on record as “novel senolytics”.

In the case of `C[C@H](CCC(=O)O)[C@H]1CCC2[C@@H]3CC=C4C[C@H](O)CC[C@]4(C)C3CC[C@@]21C` (stereo partly drawn) [(3alpha,9xi,14xi)-3-hydroxychol-5-en-24-oic acid], the senolytic effect result in assay [1] was “novel senolytics”.

As to `C=C1CC[C@@H](O)CC1=C/C=C1\CCC[C@]2(C)[C@@H]([C@H](C)CCCC(C)(C)O)CC[C@@H]12` [Calcifediol 25-Hydroxyvitamin D3, reference compound], the senolytic effect entry in assay [1] is on record as “novel senolytics”.

Turning to `COc1cccc2c1C(=O)c1c(O)c3c(c(O)c1C2=O)C[C@@](O)(C(=O)CO)C[C@@H]3O[C@H]1C[C@H](N)[C@H](O)[C@H](C)O1` [Doxo, doxorubicin], in assay [7], the “relative level of CRYAB mRNA” value is reported as “upregulated CRYAB” and the “relative level of p16INK4a mRNA” value is listed as “induces senescence marker, p16INK4a”. Also, the “senescence induction (relative level of p16INK4a mRNA)” value in assay [8] (250 nM Doxo for 24 hours) is listed as “induced senescence”. Besides, the “expression of CRYAB mRNA” value in assay [8] (250 nM doxorubicin for 24 hrs) is listed as “significantly increased”.

Turning to `Nc1nc(O)c2ncn(COC(CO)CO)c2n1` [GCV, ganciclovir, reference compound], the “pulsed wave velocity (PWV) of the aorta” value in assay [5] is “reduces PWV”.
